Measurements from patent US20250360155A1, “METHOD OF TREATING SPINAL CORD INJURY AND COMPOSITION FOR USE THEREIN” (ACADEMIA SINICA, priority 2022, published 2025).

How the values were obtained:
C57BL/6J mice with SCI [1] = assay: Behavioral tests (Basso Mouse Scale, footprint analysis) after spinal cord contusion; assay type: in vivo; settings: vs vehicle
Protocol: (§1) Mice were anesthetized by intramuscular injection of Zoletil® (50 mg/kg; tiletamine hydrochloride and zolazepam hydrochloride) and Rompun® (12 mg/kg; xylazine hydrochloride) before the surgery. After laminectomy on the T9-T10 vertebral column, the spinal cord was exposed and contused by a 10 g rod with an impact head of 1.2 mm diameter at the height of 6.25 mm above the T10 spinal cord to allow it to drop using an Impactor model-II spinal cord contusion system (RWD6809911) to cause the contusion injury. In the sham group, surgery procedures were identical except for the spinal contusion. After the injury, the wound was quickly sutured using 4.0 silk thread (Unik Taiwan; New Taipei city, Taiwan). The bladders of mice were manually and gently massaged once a day to avoid retention of urine until the reflexive control of micturition was restored. Cefazolin (300 mg/kg) was given for consecutive three days after surgery to prevent infection. Fourteen days after the surgery, mice were sacrificed for analyses.
(§2) In one example for the treatment of J4, which can be used as an ENT1 inhibitor, male C57BL/6J mice (8-12 weeks old) were divided into three groups: the sham group, the SCI+J4 group and the SCI+vehicle group. Please refer to FIG. 1. In the J4 group, mice were pretreated with 10 mg/kg J4 twice a day for three days before the injury. Following the SCI, J4 (10 mg/kg) was administered to mice twice a day for consecutive 14 days. In vehicle group, mice were treated with 5% DMSO, instead of J4, following the same protocol of the J4-treated group. The sham group received the same treatment as the vehicle group. All mice were maintained on a 12 h light/dark schedule and given food and water ad libitum in the Laboratory Animal Center (an AAALAC accredited experimental animal facility) at National Taiwan University. Procedures involving animals were conducted according to the ARRIVE (Animal Research: Reporting In Vivo Experiments) guidelines.
(§3) In another example for the treatment of JMF 1907 (i.e. the compound of formula (III)), male C57BL/6J mice (8-12 weeks old) were divided into three groups: the JMF1907 group, the methylprednisolone (MPSS) group and the vehicle group. Wherein, JMF1907 (10 mg/kg twice daily for 14 days), methylprednisolone (30 mg/kg 10 min after crush, then at 2, 4, and 6 h after crush), or vehicle (0.5% DMSO, twice daily for 14 days) was administered to said mice.
The motor function after SCI was evaluated from day 3 to day 14 after the surgery by locomotor open-field rating scale on the Basso Mouse Scale (BMS).^6 Scoring ranged from 0 for complete paraplegia to 9 for normal function. The footprint analysis was assessed on day 14 after the surgery. The hindlimbs of the mice were dipped in red and black dye for left and right foot, respectively. […]

C57BL/6J mice with SCI [2] = assay: Nissl staining of spinal cord lesion after spinal cord contusion; assay type: in vivo, mouse; settings: vs vehicle
Protocol: as §1
In one example for the treatment of J4, which can be used as an ENT1 inhibitor, male C57BL/6J mice (8-12 weeks old) were divided into three groups: the sham group, the SCI+J4 group and the SCI+vehicle group. Please refer to FIG. 1. In the J4 group, mice were pretreated with 10 mg/kg J4 twice a day for three days before the injury. […]

C57BL/6J mice with SCI [3] = assay: Immunofluorescence staining of spinal cord perilesional area after spinal cord contusion; assay type: in vivo, mouse
Protocol: as §1, §2, §3
After being anesthetized by Zoletil® (50 mg/kg) and Rompun® (12 mg/kg), mice were intracardially perfused with ice-cold normal saline. The spinal cord (T9-T11) was removed and soaked in ice-cold 4% paraformaldehyde. The vertebrae were then placed in cassettes for paraffin embedding. The samples were cut into sagittal section of 4 μm and placed in water bath at 42° C. The section was mounted onto slides and stored at room temperature until analysis. After deparaffinization, tissue retrieval was conducted in sodium citrate buffer (pH=6) at 90° C. and the spinal cord slices were then washed with phosphate-buffered saline (PBS). Sections were incubated in antibody dilution buffer (Roche, Basel, Swiss) at room temperature. The slides were immunostained by the following primary antibodies: chicken anti-neuronal nuclear protein (NeuN) (1:2000; Merck-Millipore, Dramstadt, Germany), rabbit anti-ionized calcium-binding adapter molecule-1 (Iba-1) (1:1000; Abcam, Cambridge, MA, USA), or mouse anti-glial fibrillary acidic protein (Gfap) (1:1000; cell signaling, Danvers, Massachusetts, USA) overnight at 4° C. Corresponding secondary antibodies conjugated with Alexa Fluor 488 or Rhodamine (Jackson Immuno Research Laboratories, West Grove, PA, USA) were applied for the visualization of immunolabelling. After being washed with PBST (Phosphate Buffered Saline with Tween® 20) and PBS, the slices were mounted on a mounting gel (DAPI Fluoromount G; Southern Biotech Birmingham, Alabama, USA). Images were acquired by a Zeiss AXIO Imager M1 microscope (Carl Zeiss, Gottingen, Germany). […]

C57BL/6J mice with SCI [4] = assay: Western blot of spinal cord (T9-T11) after spinal cord contusion; assay type: in vivo, mouse; settings: J4 10 mg/kg twice a day
Protocol: as §1, §2
The protein concentrations of the samples were determined by the Bio-Rad DC Protein Assay Kit (Bio-rad, Hercules, CA, USA). Protein samples (10 μg each) were diluted with loading buffer (200 mM Tris-HCl, 1.43% 2-mercaptoethanol, 0.4% bromophenol blue, and 40% glycerol) and heated at 98° C. The protein samples were then separated with 90 V for 10 minutes, followed by 130 V for 60 minutes on 12% SDS-polyacrylamide gel (for S100a10, c-caspase3 and GAPDH) or 8% SDS-polyacrylamide gel (for C3, NeuN) in running buffer (0.3% Tris base, 1.88% glycine, and 0.1% SDS). After electrophoresis, the gel was transferred onto a nitrocellulose membrane in transfer buffer (0.3% Tris base, 1.88% glycine, and 20% methanol; pH 8.3) with 300 mA for 90 minutes. Nonspecific binding to membrane was blocked by BlockPRO™ 1 Min Protein Free Blocking Buffer (Neihu, Taipei City, Taiwan) at room temperature on shaker at 25 rpm. […] Bound antibodies were detected using Chemiluminescence reagent Plus (PerkinElmer Life Sciences, MA, USA) and Bio-rad ChemiDoc™ XRS+ Systems and Image Lab™ Software to obtain images under appropriate exposure time.

C57BL/6J mice with SCI [5] = assay: RT-qPCR of inflammatory cytokines in spinal cord after spinal cord contusion; assay type: in vivo, mouse; settings: J4 10 mg/kg twice a day; perilesional area, 14 days post-injury; vs vehicle
Protocol: as §1
In one example for the treatment of J4, which can be used as an ENT1 inhibitor, male C57BL/6J mice (8-12 weeks old) were divided into three groups: the sham group, the SCI+J4 group and the SCI+vehicle group. Please refer to FIG. 1. In the J4 group, mice were pretreated with 10 mg/kg J4 twice a day for three days before the injury. Following the SCI, J4 (10 mg/kg) was administered to mice twice a day for consecutive 14 days. […]
Mice were anesthetized by the inhalation of isoflurane. […] Total RNA isolation, quality check, cDNA synthesis and SYBR green based quantitative real-time PCR assay were performed as described previously.^7 The forward/reverse primer sequences for IL-1β, IL-6, TNF-α, and GAPDH were listed in Table 1. The relative expression of target genes normalized to that of glyceraldehyde 3-phosphate dehydrogenase (GAPDH) was calculated by the comparative Ct (ΔCt) and was expressed as 2−ΔCt. The relative quantity was determined by the formula: 2−ΔΔCt, in which ΔΔCt values were obtained by subtracting the ΔCt values of mice with SCI from the sham controls.

[6] = JMF1907 10 mg/kg twice daily for 14 days
[7] = JMF1907 10 mg/kg twice daily for 14 days, vs vehicle

Question: How did the “stride length (footprint analysis)” value (C57BL/6J mice with SCI [1]; J4 10 mg/kg twice a day, 3 days before and 14 days after SCI, 14 DPI) turn out when `OC[C@H]1O[C@@H](n2cnc3c(NCc4ccc(Br)s4)ncnc32)[C@H](O)[C@@H]1O` [J4, N^6-[(5-bromothien-2-yl)methyl]adenosine] was run?
Answer: improved

Question: And the BMS score (C57BL/6J mice with SCI [1]; J4 10 mg/kg twice a day, intraperitoneal, 3 days before injury and 14 days after SCI)?
Answer: improved

Question: And the “loss of spinal cord tissue (lesion volume, Nissl staining)” value (C57BL/6J mice with SCI [2]; J4 10 mg/kg twice a day, 14 days post-injury)?
Answer: significantly reduced

Question: And the “NeuN-positive cells in the perilesional area (immunostaining)” value (C57BL/6J mice with SCI [3]; J4 10 mg/kg twice a day, 14 DPI, vs vehicle)?
Answer: more

Question: And the “intensity of Iba-1-positive cells” value (C57BL/6J mice with SCI [3]; J4 10 mg/kg twice a day, perilesional area, 14 DPI, vs vehicle-treated group)?
Answer: lower

Question: What about the “average fluorescence intensity of Gfap” value (C57BL/6J mice with SCI [3]; J4 10 mg/kg twice a day, perilesional area, 14 days post-injury, vs vehicle group) of the same compound?
Answer: remarkably decreased

Question: And the “protein level of c-caspase3” value (C57BL/6J mice with SCI [4]; 14 DPI, vs vehicle)?
Answer: decreased

Question: What about the “protein level of NeuN” value (C57BL/6J mice with SCI [4]; 14 DPI, vs vehicle group) of the same compound?
Answer: higher

Question: What about the TGF-β protein (C57BL/6J mice with SCI [4]; vs vehicle) of the same compound?
Answer: significantly increased

Question: What about the “protein level of C3 (A1 astrocyte marker)” value (C57BL/6J mice with SCI [4]; vs vehicle) of the same compound?
Answer: significantly decreased

Question: And the “protein level of S100a10 (A2 astrocyte marker)” value (C57BL/6J mice with SCI [4]; vs vehicle)?
Answer: increased

Question: What about the “expression of IL-6 (mRNA)” value (C57BL/6J mice with SCI [5]) of the same compound?
Answer: trend of reduction

Question: And the “expression of IL-10 (mRNA)” value (C57BL/6J mice with SCI [5])?
Answer: trend of reduction

Question: What about the “expression of TNF-α (mRNA)” value (C57BL/6J mice with SCI [5]) of the same compound?
Answer: significantly reduced

Question: How did the “motor function (BMS score)” value (C57BL/6J mice with SCI [1]; [6]) turn out when `OC[C@H]1O[C@@H](n2cnc3c(NCCc4c[nH]c5ccccc45)ncnc32)[C@@H](O)C1O` (stereo partly drawn) [JMF1907] was run?
Answer: significantly improve

Question: What about the stride length (C57BL/6J mice with SCI [1]; [6]) of the same compound?
Answer: significantly improve

Question: What about the “lesion of the SCI (Nissl staining)” value (C57BL/6J mice with SCI [2]; [6]) of the same compound?
Answer: significantly reduce

Question: What about the “lesion of the SCI (immunofluorescence analysis, Pdgf§ expression)” value (C57BL/6J mice with SCI [3]; [7]) of the same compound?
Answer: significantly reduce

Question: What about the “level of CD68 (marker for microglia)” value (C57BL/6J mice with SCI [3]; [7]) of the same compound?
Answer: significantly reduced

Question: And the “level of Gfap (marker for reactive astrocytes)” value (C57BL/6J mice with SCI [3]; [7])?
Answer: significantly reduced

Question: And the “level of Iba-1 (marker for microglia)” value (C57BL/6J mice with SCI [3]; [7])?
Answer: significantly reduced
